Tests used:
leukemic cells = conditions: Japanese Patent Publication (unexamined) No. 141815/1976; cited from earlier work
lymphoid leukemia L-1210 = conditions: U.S. Pat. No. 4,086,415; cited from earlier work
[1] = tested on: Ehrlich ascites carcinoma; assay: Preventive effect against the growth of Ehrlich ascites carcinoma (Method A); type: in vivo, ICR mice; conditions: for Toxicity / the number of mice died / the number of mice used / minimal effective dose / Inhibition ratio: once a day for 5 days; for Therapeutic index: MTD / MED; for minimal effective dose: Mus musculus, Ehrlich, ip, 120 h, minimum dose showing 100% inhibition, i.p., read-out: MED (Minimum Effective Dose)
Experimental: (§1) (A) Preventive Effect Against the Growth of Ehrlich Ascites Tumor
(§2) 10^6 tumor cells of Ehrlich ascites carcinoma were inoculated intraperitoneally into a group of five femal mice (ICR mice, body weight: 19-23 g). A test compound was dissolved in a physiological saline solution (In the case where CCNU was employed as the test compound, said compound was suspended in a physiological saline solution containing 0.1% NIKKOL HCO-60 (trademark; a surface active agent manufactured by Nikko Chemicals Co. Ltd.)) and administered intraperitoneally to the mice. The administration of the test compound was begun 24 hours after the inoculation of the tumor cells and performed once a day for 5 days. The volume of ascites in the treated mice were measured after 7 days of the experiment.
(§3) ^(a) T = the average volume of ascites in the treated mice
(§4) C = the average volume of ascites in the untreated mice (control group of
(§5) 100% inhibition for the growth of Ehrlich ascites tumor in mice without
(§6) 100% inhibition for the growth of said ascites tumor)
(§7) ^(e) Therapeutic index = MTD / MED
(§8) *the number of mice died / the number of mice used

[2] = as above; type: in vivo, ICR mice; conditions: mouse, in vivo, ip; maximum dose showing 100% inhibition without causing death; i.p., once a day for 5 days; read-out: MTD (Maximum Tolerated Dose)
Experimental: as §1, §2, §3, §4, §5, §6, §7, §8

Leukemia L-1210 = assay: Effect on life span of mice implanted with Leukemia L-1210 (Method B); type: in vivo, BDF1 mice; conditions: once a day for 5 days; for 60-day survivors: survived for 60 days / used
Experimental: (B) Effect on the Life Span of Mice Implanted with Leukemic Cells of L-1210
10^5 leukemic cells of L-1210 were inoculated intraperitoneally into a group of four male mice (BDF1 mice, body weight: 19-23 g). A test compound was dissolved in a physiological saline solution and administered intraperitoneally to the mice. The administration of the test compound was begun 24 hours after the inoculation of the leukemic cells and performed once a day for 5 days. The survival days of the treated mice were observed.
^(a) T = the mean survival days of the treated mice
C = the mean survival days of the untreated mice (control group of mice)
^(c) 60day survivors = the number of mice survived for 60 days / the […]

O=NN(CCCl)C(=O)N[C@@H]1O[C@H](CO)[C@@H](O[C@@H]2O[C@H](CO)[C@H](O)[C@H](O)[C@H]2O)[C@H](O)[C@H]1O [1-(2-chloroethyl)-1-nitroso-3-β-(D-lactosyl)urea]
anti-tumor activity against leukemic cells (leukemic cells): show anti-tumor activity against leukemic cells

O=NN(CCCl)C(=O)N[C@@H]1O[C@H](CO)[C@@H](O[C@H]2O[C@H](CO)[C@@H](O)[C@H](O)[C@H]2O)[C@H](O)[C@H]1O [1-(2-chloroethyl)-1-nitroso-3-β-(D-maltosyl)urea]
anti-tumor activity against leukemic cells (leukemic cells): show anti-tumor activity against leukemic cells

O=NN(CCCl)C(=O)N[C@@H]1O[C@H](CO)[C@@H](O)[C@H](O)[C@@H]1O [1-(2-chloroethyl)-1-nitroso-3-β-(D-mannopyranosyl)urea]
life span of mice implanted with L-1210 (lymphoid leukemia L-1210): increase the life span of mice

O=NN(CCCl)C(=O)NC1CCCCC1 [CCNU, 1-(2-chloroethyl)-1-nitroso-3-cyclohexylurea, reference compound]
Toxicity ([1]; 100 mg/kg/day i.p.): Toxic | the number of mice died / the number of mice used ([1]; 100 mg/kg/day i.p.): 5/5 | Therapeutic index [1]: 4 | minimal effective dose [1]: 12.5 mg/kg/day

CCCCN(C(=O)N(CCCl)N=O)[C@H]1[C@@H](OC)O[C@H](CO)[C@@H](O)[C@@H]1O [Compound 1, 1-(2-chloroethyl)-1-nitroso-3-n-butyl-3-(methyl α-D-glucopyranosid-2-yl)urea]
Inhibition ratio ([1]; 0.78 mg/kg/day i.p.): 34.1% | Inhibition ratio ([1]; 1.56 mg/kg/day i.p.): 100% | Inhibition ratio ([1]; 6.25 mg/kg/day i.p.): 100% | Inhibition ratio ([1]; 25 mg/kg/day i.p.): 100% | Inhibition ratio ([1]; 100 mg/kg/day i.p.): 100% | Toxicity ([1]; 200 mg/kg/day i.p.): Toxic | Therapeutic index [1]: 64 | minimal effective dose [1]: 1.56 mg/kg/day | MTD [2]: 100 mg/kg/day

CCCN(C(=O)N(CCCl)N=O)[C@H]1[C@@H](OC)O[C@H](CO)[C@@H](O)[C@@H]1O [Compound 2, 1-(2-chloroethyl)-1-nitroso-3-n-propyl-3-(methyl α-D-glucopyranosid-2-yl)urea]
Inhibition ratio ([1]; 0.39 mg/kg/day i.p.): 15.2% | Inhibition ratio ([1]; 0.78 mg/kg/day i.p.): 100% | Inhibition ratio ([1]; 3.12 mg/kg/day i.p.): 100% | Inhibition ratio ([1]; 12.5 mg/kg/day i.p.): 100% | Inhibition ratio ([1]; 50 mg/kg/day i.p.): 100% | Toxicity ([1]; 100 mg/kg/day i.p.): Toxic | the number of mice died / the number of mice used ([1]; 100 mg/kg/day i.p.): 2/5 | Therapeutic index [1]: 64 | minimal effective dose [1]: 0.78 mg/kg/day | MTD [2]: 50 mg/kg/day | ILS (Leukemia L-1210; 6.25 mg/kg/day i.p.): 78.8% | 60-day survivors (Leukemia L-1210; 6.25 mg/kg/day i.p.): 0/4 | ILS (Leukemia L-1210; 12.5 mg/kg/day i.p.): > 366.3% | 60-day survivors (Leukemia L-1210; 12.5 mg/kg/day i.p.): 2/4 | ILS (Leukemia L-1210; 25 mg/kg/day i.p.): > 650.0% | 60-day survivors (Leukemia L-1210; 25 mg/kg/day i.p.): 4/4 | ILS (Leukemia L-1210; 50 mg/kg/day i.p.): > 650.0% | 60-day survivors (Leukemia L-1210; 50 mg/kg/day i.p.): 4/4

CO[C@H]1O[C@H](CO)[C@@H](O)[C@H](O)[C@H]1N(CC(C)C)C(=O)N(CCCl)N=O [Compound 3, 1-(2-chloroethyl)-1-nitroso-3-isobutyl-3-(methyl α-D-glucopyranosid-2-yl)urea]
Inhibition ratio ([1]; 0.39 mg/kg/day i.p.): 45.7% | Inhibition ratio ([1]; 0.78 mg/kg/day i.p.): 100% | Inhibition ratio ([1]; 3.12 mg/kg/day i.p.): 100% | Inhibition ratio ([1]; 12.5 mg/kg/day i.p.): 100% | Inhibition ratio ([1]; 50 mg/kg/day i.p.): 100% | Toxicity ([1]; 100 mg/kg/day i.p.): Toxic | the number of mice died / the number of mice used ([1]; 100 mg/kg/day i.p.): 4/5 | Therapeutic index [1]: 64 | minimal effective dose [1]: 0.78 mg/kg/day | MTD [2]: 50 mg/kg/day | ILS (Leukemia L-1210; 12.5 mg/kg/day i.p.): 114.9% | 60-day survivors (Leukemia L-1210; 12.5 mg/kg/day i.p.): 0/4 | ILS (Leukemia L-1210; 25 mg/kg/day i.p.): > 689.5% | 60-day survivors (Leukemia L-1210; 25 mg/kg/day i.p.): 4/4 | ILS (Leukemia L-1210; 50 mg/kg/day i.p.): > 689.5% | 60-day survivors (Leukemia L-1210; 50 mg/kg/day i.p.): 4/4

COCCN(C(=O)N(CCCl)N=O)[C@H]1[C@@H](OC)O[C@H](CO)[C@@H](O)[C@@H]1O [Compound 4, 1-(2-chloroethyl)-1-nitroso-3-(2-methoxyethyl)-3-(methyl α-D-glucopyranosid-2-yl)urea]
Inhibition ratio ([1]; 0.19 mg/kg/day i.p.): 69.6% | Inhibition ratio ([1]; 0.39 mg/kg/day i.p.): 100% | Inhibition ratio ([1]; 0.78 mg/kg/day i.p.): 100% | Inhibition ratio ([1]; 3.12 mg/kg/day i.p.): 100% | Inhibition ratio ([1]; 12.5 mg/kg/day i.p.): 100% | Inhibition ratio ([1]; 50 mg/kg/day i.p.): 100% | Toxicity ([1]; 100 mg/kg/day i.p.): Toxic | the number of mice died / the number of mice used ([1]; 100 mg/kg/day i.p.): 3/5 | Therapeutic index [1]: 128 | minimal effective dose [1]: 0.39 mg/kg/day | MTD [2]: 50 mg/kg/day | ILS (Leukemia L-1210; 6.25 mg/kg/day i.p.): 93.8% | 60-day survivors (Leukemia L-1210; 6.25 mg/kg/day i.p.): 0/4 | ILS (Leukemia L-1210; 12.5 mg/kg/day i.p.): > 243.8% | 60-day survivors (Leukemia L-1210; 12.5 mg/kg/day i.p.): 1/4 | ILS (Leukemia L-1210; 25 mg/kg/day i.p.): > 650.0% | 60-day survivors (Leukemia L-1210; 25 mg/kg/day i.p.): 4/4 | ILS (Leukemia L-1210; 50 mg/kg/day i.p.): > 650.0% | 60-day survivors (Leukemia L-1210; 50 mg/kg/day i.p.): 4/4

CO[C@H]1O[C@H](CO)[C@@H](O)[C@H](O)[C@H]1N(C)C(=O)N(CCCl)N=O [Compound 5, 1-(2-chloroethyl)-1-nitroso-3-methyl-3-(methyl α-D-glucopyranosid-2-yl)urea]
Inhibition ratio ([1]; 0.39 mg/kg/day i.p.): 9.8% | Inhibition ratio ([1]; 0.78 mg/kg/day i.p.): 100% | Inhibition ratio ([1]; 1.56 mg/kg/day i.p.): 100% | Inhibition ratio ([1]; 6.25 mg/kg/day i.p.): 100% | Inhibition ratio ([1]; 25 mg/kg/day i.p.): 100% | Inhibition ratio ([1]; 100 mg/kg/day i.p.): 100% | Toxicity ([1]; 200 mg/kg/day i.p.): Toxic | the number of mice died / the number of mice used ([1]; 200 mg/kg/day i.p.): 5/5 | Therapeutic index [1]: 128 | minimal effective dose [1]: 0.78 mg/kg/day | MTD [2]: 100 mg/kg/day

O=NN(CCCl)C(=O)N[C@@H]1O[C@H](CO)[C@@H](O)[C@H](O)[C@H]1O [GANU, 1-(2-chloroethyl)-1-nitroso-3-(β-D-glucopyranosyl)urea, reference compound]
life span of mice implanted with L-1210 (lymphoid leukemia L-1210): increase the life span of mice | Inhibition ratio ([1]; 12.5 mg/kg/day i.p.): 100% | Toxicity ([1]; 25 mg/kg/day i.p.): Toxic | the number of mice died / the number of mice used ([1]; 25 mg/kg/day i.p.): 5/5 | Therapeutic index [1]: 32 | minimal effective dose [1]: 0.39 mg/kg/day | MTD [2]: 12.5 mg/kg/day

Source: patent US4472573A, “Nitrosourea derivative and process for preparing same” (Tanabe Seiyaku Co., Ltd., priority 1981, dated 1984)
